These results are taken from patent US20240190922A1, “PEPTIDE PLATINUM COMPLEXES AND METHODS OF USE THEREOF” (priority 2020, published 2024).

The test relates to A375 cells (human skin melanoma derived cell line). The test can be described thus: A375 cell killing assay (CellTiter-Glo luminescence). It is filed as cell-based. Particulars: for potency relative to Onco-001 (times more potent): from EC50 values. The procedure:
Alternatively, A375 cells (human skin melanoma derived cell line) are harvested by centrifugation and then re-suspended in a culture medium. The cell density is adjusted, and cell suspension transferred to the assay multi-well plate. The marginal wells are filled with PBS. The assay plate is incubated in a cell incubator for about 16˜18 hours. Working solutions of test compounds and positive control at various concentrations are added to corresponding wells of the plate. The assay plate is then incubated for an additional 72 hours in a 37° C./5% CO2 incubator. After incubation, the working solution of CellTiter-Glo® reagent is added to the corresponding wells and shaken on an orbital shaker. The assay plate is incubated at room temperature for a short while to stabilize the luminescent signal. Luminescence signals are measured by a luminescence plate reader, such as PheraStar (BMG). Data are stored on a local computer or computer server for analysis.
In general terms: Cellular ATP, detected with luciferase, serves as a proxy for viable cell number.

Ends that are not written are not given here.

“Onco-003: formula (I): R1 and R2 form trans-R,R-1,2-diaminocyclohexane, R3 and R4 joined by bidentate peptide AcGPSRVGGCD”: the “potency relative to Onco-001 (times more potent)” value was “approximately 15 ×”. For “Onco -005 (Ac-GPSRVGG; not fully specified (C-terminus); also: gamma-carboxyglutamic acid, no place given)”, the “potency relative to Onco-001 (times more potent)” value is recorded as “approximately 15 ×”. What is called EC50 is the midpoint of the concentration-response curve. A low value points to greater potency. For the substance “cis-bis[AcGPSRVGGCNH2][trans-(1R,2R)-1,2-diaminocyclohexane]platinum(II) [Onco-001]”, the concentration giving a half-maximal response (EC50) (72 hours incubation, CellTiter-Glo) was approximately 130 µM.
